Measurements from patent US10682371B2, “Small molecule conjugates specifically activated in tumor microenvironment for targeting and use thereof” (priority 2014, dated 2020).

Legend:
[1] = test system: Human non-small cell lung cancer A549; test: Multiple tumor models in nude mice: A549; format: in vivo
Description: (§1) 1) Corresponding tumor cells were purchased from American type culture collection (ATCC) and identified according the specification provided by ATCC. Cells were cultivated in DMEM culture solution containing 10% fetal bovine serum at 37° C. and 5% CO2. The cells were passaged for every three days and cells within the 15th passage were used.
(§2) 2) Production of tumor. 5×10^6 corresponding cells were subcutaneously injected to the back of the nude mice. Mice were randomly grouped after the tumor reached at least 100 mm^3. Then treatment began and the day on which the treatment began was day 1.
(§3) 3) Course of treatment. […] The control group was administered by physiological saline. Animals were administered once weekly for three weeks.
(§4) 3) Course of treatment. According to the clinical application of A1, A1 was administered in a dose of ⅙ MTD, i.v., 17.6 μmol/kg. The control group was administered by physiological saline. Animals were administered once weekly for three weeks.
(§5) 3) Course of treatment. According to the clinical application of B1, B1 was administered in a dose of ⅙ MTD, i.v., 17.6 μmol/kg. The control group was administered by physiological saline. Animals were administered once weekly for three weeks.
as §3, §3

[2] = Multiple tumor models in nude mice: HT1080; format: in vivo; conditions: Human colon caner HT1080
Description: as §1, §2, §3, §4, §5, §3, §3

[3] = test system: MDA-MB231 tumor tissue; test: Activation efficiency by MDA-MB231 tumor tissue (HPLC); format: biochemical
Description: At 37 °C, sample compounds were added into 100 μg acidized tumor tissue homogenates in a concentration of 1 mg/ml.
In the experiments, at 37 °C, compounds were added into proteases in 100 μg acidized tumor tissue homogenates in a concentration of 1 mg/ml. […] Meanwhile certain compounds produced in the screening were compared and their activation efficiency in same tissue was analyzed.

[4] = test system: Human pancreatic cancer Panc-1; test: Multiple tumor models in nude mice: Panc-1; format: in vivo
Description: as §1, §2, §3, §4, §5, §3, §3

[5] = test system: Human ovarian cancer SK-OV-3; test: Multiple tumor models in nude mice: SK-OV-3; format: in vivo
Description: as §1, §2, §3, §4, §5, §3, §3

[6] = test system: Human colon cancer HT-29; test: Multiple tumor models in nude mice: HT-29; format: in vivo
Description: as §1, §2, §3, §4, §5, §3, §3

[7] = test system: Human breast cancer MDA-MB435; test: Multiple tumor models in nude mice: MDA-MB435; format: in vivo
Description: as §1, §2, §3, §4, §5, §3, §3

[8] = test system: Human chronic leukemia K562; test: Multiple tumor models in nude mice: K562; format: in vivo
Description: as §1, §2, §3, §4, §5, §3, §3

[9] = test system: Human renal cancer OS-RC-2; test: Multiple tumor models in nude mice: OS-RC-2; format: in vivo
Description: as §1, §2, §3, §4, §5, §3, §3

[10] = test system: Human liver cancer Hepg2; test: Multiple tumor models in nude mice: Hepg2; format: in vivo
Description: as §1, §2, §3, §4, §5, §3, §3

[11] = Table 41, i.v. 17.6 μmol/kg once weekly for three weeks
[12] = Table 51, 25 mg/kg once weekly for three weeks

Compound: COCCOCC(=O)NCCCC[C@H](NC(=O)COCCOC)C(=O)N[C@H](C)C(=O)N[C@H](C)C(=O)N[C@H](CC(N)=O)C(=O)Nc1ccc(COC(=O)OC(C(=O)OC2C[C@@]3(O)[C@@H](OC(=O)c4ccccc4)[C@H]4[C@](C)(C(=O)[C@H](O)C(=C2C)C3(C)C)[C@@H](O)CC2OC[C@]24OC(C)=O)[C@@H](NC(=O)OC(C)(C)C)c2ccccc2)cc1 (some centres unmarked) [Compound B1]
- inhibitory rate on tumor (Day 26) [1, 11]: 74.56%
- inhibitory rate on tumor (Day 26) [2, 11]: 84.46%
- activation efficiency (%) ([3]; Table 35, water-soluble Docetaxel series and controls): 93.4%
- inhibitory rate on tumor (Day 26) [4, 11]: 73.56%
- inhibitory rate on tumor (Day 26) [5, 11]: 74.67%
- inhibitory rate on tumor (Day 26) [6, 11]: 74.56%
- inhibitory rate on tumor (Day 26) [7, 11]: 78.84%
- inhibitory rate on tumor (Day 26) [8, 11]: 72.56%
- inhibitory rate on tumor (Day 26) [9, 11]: 86.67%
- inhibitory rate on tumor (Day 26) [10, 11]: 81.56%

Compound: COCCOCC(=O)N[C@H](C)C(=O)N[C@H](C)C(=O)N[C@H](CC(N)=O)C(=O)Nc1ccc(COC(=O)OC(C(=O)OC2C[C@@]3(O)[C@@H](OC(=O)c4ccccc4)[C@H]4[C@](C)(C(=O)[C@H](O)C(=C2C)C3(C)C)[C@@H](O)CC2OC[C@]24OC(C)=O)[C@@H](NC(=O)OC(C)(C)C)c2ccccc2)cc1 (stereo partly drawn) [Compound D1, 2-(2-methoxyethoxy) acetyl-L-Ala-L-Ala-L-Asn-4-amino benzyl-Docetaxel]
- inhibitory rate on tumor (Day 26) [1, 12]: 90.4%
- inhibitory rate on tumor (Day 26) [2, 12]: 94.6%
- activation efficiency (%) ([3]; Table 46, Docetaxel D series and controls): 91.5%
- inhibitory rate on tumor (Day 26) [4, 12]: 89.4%
- inhibitory rate on tumor (Day 26) [5, 12]: 82.9%
- inhibitory rate on tumor (Day 26) [6, 12]: 68.6%
- inhibitory rate on tumor (Day 26) [7, 12]: 93.5%
- inhibitory rate on tumor (Day 26) [8, 12]: 84.6%
- inhibitory rate on tumor (Day 26) [9, 12]: 87.7%
- inhibitory rate on tumor (Day 26) [10, 12]: 75.7%
